Laboratory results reported in patent US20100184806A1, “MODULATION OF NEUROGENESIS BY PPAR AGENTS” (BrainCells, Inc., priority 2006, published 2010).
Where two headings read alike, the source gives them in different places.

Key:
[1] = target: mGluR2 (Homo sapiens, UniProt Q14416); conditions: read-out: IC50 against mGluR2; cited from earlier work
[2] = system: Group I or Group III receptors; conditions: at sub-mM concentrations; cited from earlier work
[3] = target: mGluR3 (Homo sapiens, UniProt Q14832); conditions: read-out: IC50 against mGluR3; cited from earlier work
[4] = system: human neural stem cells (hNSCs)
Source text: (§1) Mitogen-free test media with a positive control for neuronal differentiation was used along with basal media without growth factors as a negative control.
(§2) A positive control for neuronal differentiation was used along with basal media without growth factors as a negative control.
(§3) Human neural stem cells (hNSCs) were isolated and grown in monolayer culture, plated, treated with varying concentrations of rosiglitazone and/or N-acetylcysteine (test compounds), and stained with TUJ-1 antibody, as described above. Mitogen-free test media with a positive control for neuronal differentiation was used along with basal media without growth factors as a negative control.
(§4) Human neural stem cells (hNSCs) were isolated and grown in monolayer culture, plated, treated with varying concentrations of ciglitazone and/or N-acetylcysteine (test compounds), and stained with TUJ-1 antibody, as described above. Mitogen-free test media with a positive control for neuronal differentiation was used along with basal media without growth factors as a negative control.
(§5) Human neural stem cells (hNSCs) were isolated and grown in monolayer culture, plated, treated with varying concentrations of pioglitazone and/or N-acetylcysteine (test compounds), and stained with TUJ-1 antibody, as described above. Mitogen-free test media with a positive control for neuronal differentiation was used along with basal media without growth factors as a negative control.
(§6) Human neural stem cells (hNSCs) were isolated and grown in monolayer culture, plated, treated with varying concentrations of troglitazone and/or N-acetylcysteine (test compounds), and stained with TUJ-1 antibody, as described above. Mitogen-free test media with a positive control for neuronal differentiation was used along with basal media without growth factors as a negative control.
(§7) The presence of synergy was determined by use of a combination index (CI). […] The CI is a quantitative measure of the nature of drug interactions, comparing the EC50's of two compounds, when each is assayed alone, to the EC50 of each compound when assayed in combination. The combination index (CI) is equal to the following formula:
(§8) where C1 and C2 are the concentrations of a first and a second compound, respectively, resulting in 50% activity in neuronal differentiation when assayed in combination; and IC1 and IC2 are the concentrations of each compound resulting in 50% activity when assayed independently.

[5] = system: KA, AMPA, and NMDA iGlu receptors; conditions: cited from earlier work
[6] = system: mGlu7 and mGlu8; conditions: at higher concentrations (e.g., above 1 μM); cited from earlier work
[7] = target: human mGlu2 receptors (Homo sapiens, UniProt Q14416); conditions: low nanomolar range, e.g. below about 10 nM, or below about 5 nM; read-out: EC50 against human mGlu2 receptors in vitro; cited from earlier work
[8] = target: human mGlu3 receptors (Homo sapiens, UniProt Q14832); conditions: low nanomolar range, e.g. below about 10 nM, or below about 5 nM; read-out: EC50 against human mGlu3 receptors in vitro; cited from earlier work
[9] = system: human neural stem cells (hNSCs); experiment: Neuronal differentiation of human neural stem cells (TUJ-1 staining); conditions: read-out: EC50, neuronal differentiation, extrapolated, agent alone, extrapolated based on the data
Source text: as §1, §2, §3, §4, §5, §6, §7, §8

Chain of human mGlu2 receptors (Q14416 19-872): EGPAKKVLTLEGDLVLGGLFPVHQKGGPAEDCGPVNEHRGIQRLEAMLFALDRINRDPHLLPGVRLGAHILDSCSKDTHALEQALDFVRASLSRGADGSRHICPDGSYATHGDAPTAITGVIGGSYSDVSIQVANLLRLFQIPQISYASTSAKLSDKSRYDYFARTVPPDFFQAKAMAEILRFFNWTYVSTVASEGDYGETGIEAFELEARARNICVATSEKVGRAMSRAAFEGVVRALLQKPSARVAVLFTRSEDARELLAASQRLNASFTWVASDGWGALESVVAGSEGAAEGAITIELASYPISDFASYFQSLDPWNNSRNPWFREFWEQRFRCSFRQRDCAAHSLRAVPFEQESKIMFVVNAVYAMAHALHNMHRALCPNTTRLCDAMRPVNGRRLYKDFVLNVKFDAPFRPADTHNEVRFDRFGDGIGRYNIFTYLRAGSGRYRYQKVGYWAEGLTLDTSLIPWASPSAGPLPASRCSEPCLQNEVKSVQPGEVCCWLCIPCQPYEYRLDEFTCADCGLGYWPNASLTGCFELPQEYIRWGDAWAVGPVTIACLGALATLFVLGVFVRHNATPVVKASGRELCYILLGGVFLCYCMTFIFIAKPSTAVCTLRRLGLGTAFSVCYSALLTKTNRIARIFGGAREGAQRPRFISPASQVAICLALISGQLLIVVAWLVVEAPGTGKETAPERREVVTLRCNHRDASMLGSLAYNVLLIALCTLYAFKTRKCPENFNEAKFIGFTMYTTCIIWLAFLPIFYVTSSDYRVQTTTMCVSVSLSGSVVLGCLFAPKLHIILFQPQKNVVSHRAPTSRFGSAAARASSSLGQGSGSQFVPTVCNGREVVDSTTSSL
Chain of mGluR2 (Q14416 19-872): as above
Chain of mGluR3 (Q14832 23-879): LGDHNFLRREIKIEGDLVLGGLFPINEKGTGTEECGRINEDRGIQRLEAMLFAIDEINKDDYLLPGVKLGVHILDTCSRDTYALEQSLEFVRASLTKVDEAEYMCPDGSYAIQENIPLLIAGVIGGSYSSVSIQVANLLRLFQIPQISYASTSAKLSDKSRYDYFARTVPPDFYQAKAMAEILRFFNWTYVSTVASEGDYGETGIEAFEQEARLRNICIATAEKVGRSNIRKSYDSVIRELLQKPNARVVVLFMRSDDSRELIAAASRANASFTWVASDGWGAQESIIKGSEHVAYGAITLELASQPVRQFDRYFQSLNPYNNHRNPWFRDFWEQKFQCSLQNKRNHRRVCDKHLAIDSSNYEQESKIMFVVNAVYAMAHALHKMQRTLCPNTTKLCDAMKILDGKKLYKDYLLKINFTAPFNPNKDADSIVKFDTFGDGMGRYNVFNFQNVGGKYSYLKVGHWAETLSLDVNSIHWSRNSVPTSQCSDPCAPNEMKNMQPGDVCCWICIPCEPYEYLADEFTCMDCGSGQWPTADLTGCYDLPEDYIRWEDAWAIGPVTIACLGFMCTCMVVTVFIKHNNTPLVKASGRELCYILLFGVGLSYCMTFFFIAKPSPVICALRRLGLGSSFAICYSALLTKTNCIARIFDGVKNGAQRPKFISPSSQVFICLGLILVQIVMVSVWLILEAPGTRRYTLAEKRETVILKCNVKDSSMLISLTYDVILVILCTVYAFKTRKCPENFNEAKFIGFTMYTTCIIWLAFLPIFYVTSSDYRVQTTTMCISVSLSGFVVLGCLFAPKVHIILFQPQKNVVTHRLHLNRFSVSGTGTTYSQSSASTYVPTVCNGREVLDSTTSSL
Chain of human mGlu3 receptors (Q14832 23-879): as above

Compound | EC50 [4] [µM] | also measured
NC1(C(=O)O)CCc2cc(P(=O)(O)O)ccc21 (racemic) [APICA, (RS)-1-amino-5-phosphonoindan-1-carboxylic acid] | – | IC50 [1]: ~30 µM; activity against Group I or Group III receptors [2]: no appreciable activity; IC50 [3]: ~30 µM
CCc1ccc(CCOc2ccc(CC3SC(=O)NC3=O)cc2)nc1 (racemic) [pioglitazone, (RS)-5-(4-[2-(5-ethylpyridin-2-yl)ethoxy]benzyl)-thiazolidine-2,4-dione] | 0.348 | –
CN(CCOc1ccc(CC2SC(=O)NC2=O)cc1)c1ccccn1 (racemic) [rosiglitazone, (RS)-5-[4-(2-[methyl(pyridin-2-yl)amino]ethoxy)-benzyl]thiazolidine-2,4-dione] | 1.8 | –
N[C@](CC1c2ccccc2Oc2ccccc21)(C(=O)O)[C@H]1C[C@@H]1C(=O)O [LY341495, (2S)-2-amino-2-(1S,2S-2-carboxycycloprop-1-yl)-3-(xanth-9-yl) propanoic acid] | – | activity against KA, AMPA, and NMDA iGlu receptors [5]: substantially inactive; activity against mGlu7 and mGlu8 [6]: antagonist activity
N[C@@]1(C(=O)O)CO[C@H]2[C@H](C(=O)O)[C@H]21 [LY379268, (−)-2-oxa-4-aminobicyclohexane-4,6-dicarboxylic acid] | – | EC50 [7]: < 0.01 µM; EC50 [8]: < 0.01 µM
CC(=O)N[C@@H](CS)C(=O)O [NAC, N-acetyl-L-cysteine] | 5.55 | –
O=C(Nc1ccncc1)c1cc([N+](=O)[O-])ccc1Cl [T0070907] | – | EC50 [9]: 5.4 µM
CC1(COc2ccc(CC3SC(=O)NC3=O)cc2)CCCCC1 (stereo not shown) [ciglitazone, 5-{4-[(1-methylcyclohexyl)methoxy]benzyl}-1,3-thiazolidine-2,4-dione] | 0.1 | –
CC(C)(Oc1ccc(C2CC2(Cl)Cl)cc1)C(=O)O (stereo not shown) [ciprofibrate] | 2.1 | –
CCOC(=O)C(C)(C)Oc1ccc(Cl)cc1 [clofibrate] | 2.6 | –
Nc1c2c(nc3ccccc13)CCCC2 [tacrine] | 12.6 | –
Cc1c(C)c2c(c(C)c1O)CCC(C)(COc1ccc(CC3SC(=O)NC3=O)cc1)O2 (stereo not shown) [troglitazone, 5-(4-[(6-hydroxy-2,5,7,8-tetramethylchroman-2-yl)methoxy]benzyl)thiazolidine-2,4-dione] | 10 | –
